Like-named read-outs stand apart in the source and are kept apart here.
Test system: p-Src / total Src
Assay type: cell-based, mouse
Procedure: On day 1, mouse KPC-105 cells were cultured until 300,000 cells per well in a 6 well plate were obtained. On day 2, the cells were treated with 0, 0.5, 1,5, 10, 15, 30, 50 and 100 µM lidocaine for 30 minutes. Plates were then collected and washed with phosphate buffered saline and stored at -80° C. Cells were subsequently lysed with 100 µl of radioimmunoprecipitation assay buffer with protease and phosphatase buffers.
Protein estimation was done using a Bradford assay under the following conditions: • A Western Blot was stripped with 6 M guanidine hydrochloride after p-Src protein blocking to probe with total Src protein. • 10% SDS-PAGE 10 well Blocking: 5% bovine serum albumin for p-Src blot. • P-Src-Tyr416 (GeneTex GTX81151) Rb: 1:1000 in 5% bovine serum albumin, Overnight. • Total Src (Cell Signaling Technology 2108S ) Rb mAb 1:1000 overnight in 5% milk. • GAPDH (Invitrogen# AM4300) : 1:5000 in 5% milk overnight. • Wash: 4x for 5 minutes each with 1x TBST. • Developed using 50% femto for the p-Src protein and homemade ECL substrate for total Src and GAPDH protein.
Example 4 evaluated endogenous Src and p-Src in 10 µM lidocaine treated mouse KPC-105 cells at different time points.
Example 5 evaluated endogenous Src and p-Src in mouse KPC-105 cells treated with 10 10 µM lidocaine for different time points, and increasing doses of methylnaltrexone after one hour of incubation. Western Blot banding patterns were generated using 15 µg /lane (NP40 lysates) 10% SDS PAGE over a 6-hour duration (lidocaine) and a 1-hour duration (methylnaltrexone).
• P-Src-Tyr416 (GeneTex # GTX81151) Rb: 1:1000 in 5% bovine serum albumin o/n at 4° C. • 10 µg /lane (NP40 lysates) 10% SDS PAGE • Total Src (CST # 2108S ) Rb mAb 1:1000 in 5% bovine serum albumin o/n at 4° C.
• P-Src-Tyr416 (GeneTex # GTX81151) Rb: 1:1000 in 5% bovine serum albumin 3 hours at room temperature • 10 µg /lane (NP40 lysates) 10% SDS PAGE • Total Src (CST # 2108S ) Rb mAb 1:1000 in 5% bovine serum albumin 3 hours at room temperature
• P-Src-Tyr416 (GeneTex # GTX81151) 1:2000 in 5% bovine serum albumin, o/n at 4° C. • Total Src (CST # 2108S ) 1:3000 in 5% bovine serum albumin, o/n at 4° C. • Vinculin (ProteinTech) 1:4000 in 5% milk o/n at 4° C.
• P-Src-Tyr416 (GeneTex # GTX81151) 1:2000 in 5% bovine serum albumin, o/n at 4C • Total Src (CST # 2108S ) 1:3000 in 5% bovine serum albumin, o/n at 4C

[1] = Example 4, 10 µM lidocaine, different time points
[2] = Example 8, 10 µM lidocaine, 100 nM methylnaltrexone or both, different time points

## CCN(CC)CC(=O)Nc1c(C)cccc1C [lidocaine, 2-diethylaminoaceto-2′,6′-xylidide]
Example 3, 30 minutes of treatment, 0-100 µM tested
  dose from which the level of p-Src protein is reduced: ≥ 10 µM
[1]
  Src phosphorylation (p-Src): attenuated Src phosphorylation after 15 minutes and up to 6 hours
  total Src: not affected
Example 5, 10 µM lidocaine over 6 hours, increasing doses of methylnaltrexone, 1 hour
  total Src: not affected
Example 5, 10 µM lidocaine, different time points, inconsistent banding pattern
  Src phosphorylation (p-Src): attenuated Src phosphorylation at 30 minutes, 1 hour, 2 hours, and 6 hours
[2]
  phosphorylation of Src: attenuated phosphorylation of Src after 1 hour of exposure
  total Src: decreased total Src after 1 hours of exposure

Reference: US20230158015A1, “DRUG COMBINATIONS FOR INHIBITING INFLAMMATION AND SRC KINASE ACTIVATION FOLLOWING INVASIVE SURGICAL PROCEDURES” (SINTETICA S.A., priority 2020, published 2023)
